Each structure is given as a SMILES string. In brackets after ≈: the same amount, converted by molar mass.

Test [1] concerns the target DNA polymerase beta (Rattus norvegicus) (UniProt P06766). Nature of the test: Inhibition of rat DNA polymerase beta assessed as incorporation of [3H]dTTP.
The species entered for a further test is Bos taurus. Nature of the test: Inhibition of calf DNA polymerase alpha assessed as incorporation of [3H]dTTP.

For `CC(C)=CCC[C@@H](C)[C@H]1CC[C@@]2(C)C3=C(CC[C@]12C)[C@]1(C)[C@@H](CC3=O)[C@@](C)(C(=O)O)[C@@H](O)C[C@H]1O`, the MIC in test [1] came out at 90 µM (≈ 43.8 µg/mL); in the test listed under Bos taurus, 30 µM (≈ 14.6 µg/mL).

Regarding `CC(C)=CCC[C@@H](C)[C@H]1CC[C@@]2(C)C3=C([C@H](O)C[C@]12C)[C@]1(C)[C@@H](CC3=O)[C@@](C)(C(=O)O)[C@@H](O)C[C@H]1O`, the results for the MIC (in test [1]; in the test filed under Bos taurus) were 125 µM (≈ 62.8 µg/mL) and 75 µM (≈ 37.7 µg/mL), respectively.

Turning to `CO[C@@H]1C[C@]2(C)[C@@H]([C@H](C)CCC=C(C)C)CC[C@@]2(C)C2=C1[C@]1(C)[C@@H](CC2=O)[C@@](C)(C(=O)O)[C@@H](O)C[C@H]1O`, the results for the MIC (in test [1]; in the test filed under Bos taurus) were 130 µM (≈ 67.2 µg/mL) and 75 µM (≈ 38.8 µg/mL), respectively.

Regarding `CC(C)=CCC[C@@H](C)[C@H]1CC[C@@]2(C)C3=C(CC[C@]12C)[C@]1(C)[C@@H](CC3=O)[C@@](C)(C(=O)O)[C@H](O)C[C@H]1O`, the MIC amounted to 95 µM (≈ 46.2 µg/mL) in test [1] and 35 µM (≈ 17 µg/mL) in the test listed under Bos taurus.
